The source of these data is patent US11453683B1, “KRas G12D inhibitors” (Mirati Therapeutics, Inc., priority 2019, dated 2022).

The test system of the assay is KRas G12D-mediated phosphorylation of ERK. The experiment in a line: Inhibition of KRas G12D-mediated phosphorylation of ERK in AGS cells. The class given is cell-based. Conditions: Homo sapiens; AGS cells expressing G12D, 3 hours, phospho-ERK normalized to GAPDH. The method, then: Cells were plated in tissue culture treated 96 well plates at a density of 40,000 cells/well and allowed to attach for 12-14 hours. Diluted compounds were then added in a final concentration of 0.5% DMSO. After 3 hours, the medium was removed, 150 μL of 4.0% formaldehyde was added and the plates incubated at room temperature for 20 minutes. The plates were washed with PBS, and permeabilized with 150 μL of ice cold 100% methanol for 10 minutes. Non-specific antibody binding to the plates was blocked using 100 μL Licor blocking buffer (Li-Cor Biotechnology, Lincoln Nebr.) for 1 hour at room temperature.
The amount of phospho-ERK was determined using an antibody specific for the phosphorylated form of ERK and compared to the amount of GAPDH. Primary antibodies used for the detection were added as follows: Phospho-ERK (Cell Signaling cs-9101) diluted 1:500 and GAPDH (Millipore MAB374) diluted 1:5000 in Licor block+0.05% Tween 20. The plates were incubated for 2 hours at room temperature. The plates were washed with PBS+0.05% Tween 20.
Secondary antibodies used to visualize primary antibodies were added as follows: Anti-rabbit-680 diluted 1:1000 and Anti-mouse-800 diluted 1:1000 both in Licor block+0.05% TweeN2O, and were incubated for 1 hour at room temperature. The plates were washed with PBS+0.05% Tween 20. A 100 μL aliquot of PBS was added to each well and the plates were read on a Li-Cor Odyssey CLX plate reader.
The phospho-ERK (Thr202/Tyr204 signal was normalized to the GAPDH signal for each well and percent of DMSO control values were calculated. IC50 values were generated using a 4-parameter fit of the dose response curve

Structures are written as SMILES. Where a name gives a salt, the structure may show the parent alone.

`CN1CC(COc2nc(N3C[C@H]4CC[C@@H](C3)N4)c3cnc(-c4cccc5cccc(Cl)c45)c(F)c3n2)CC1=O` (stereo partly drawn) [Example 131, 4-(((4-((1R,5S)-3,8-diazabicyclo[3.2.1]octan-3-yl)-7-(8-chloronaphthalen-1-yl)-8-fluoropyrido[4,3-d]pyrimidin-2-yl)oxy)methyl)-1-methylpyrrolidin-2-one] gave a concentration for half-maximal inhibition (IC50) greater than 16700 nM. With `Fc1c(-c2cccc3cccc(F)c23)ncc2c(N3C[C@H]4CC[C@@H](C3)N4)nc(OCC34CCCN3CCC4)nc12` [Example 234, 4-((1R,5S)-3,8-diazabicyclo[3.2.1]octan-3-yl)-8-fluoro-7-(8-fluoronaphthalen-1-yl)-2-((tetrahydro-1H-pyrrolizin-7a(5H)-yl)methoxy)pyrido[4,3-d]pyrimidine] the figure was 409 nM. The same measure for `CN1CCC[C@H]1COc1nc(N2C[C@H]3CC[C@@H](C2)N3)c2cnc(-c3cccc4c3C3(CC4)CC3)c(F)c2n1` [Example 162, 4-((1R,5S)-3,8-diazabicyclo[3.2.1]octan-3-yl)-7-(2′,3′-dihydrospiro[cyclopropane-1,1′-inden]-7′-yl)-8-fluoro-2-(((S)-1-methylpyrrolidin-2-yl)methoxy)pyrido[4,3-d]pyrimidine bis(2,2,2-trifluoroacetate)]: greater than 16700 nM.

Consider `CO[C@@H]1C[C@@H](COc2nc(N3C[C@H]4CC[C@@H](C3)N4)c3cnc(-c4cc(O)cc5ccccc45)c(F)c3n2)N(C)C1` [Example 42, 4-(4-((1R,5S)-3,8-diazabicyclo[3.2.1]octan-3-yl)-8-fluoro-2-(((2S,4R)-4-methoxy-1-methylpyrrolidin-2-yl)methoxy)pyrido[4,3-d]pyrimidin-7-yl)naphthalen-2-ol], for which half-maximal inhibition (IC50) was put at 638 nM. With `Fc1c(-c2cccc3cccc(Cl)c23)ncc2c(N3C[C@H]4CC[C@@H](C3)N4)nc(OC[C@]34CCCN3[C@@H](Cn3cccn3)CC4)nc12` [Example 418, 2-((3-((1H-pyrazol-1-yl)methyl)tetrahydro-1H-pyrrolizin-7a(5H)-yl)methoxy)-4-(3,8-diazabicyclo[3.2.1]octan-3-yl)-7-(8-chloronaphthalen-1-yl)-8-fluoropyrido[4,3-d]pyrimidine bis(2,2,2-trifluoroacetate)] the figure was 2740 nM; with `O[C@@H]1C[C@@H]2CN(c3nc(OCCc4ccc(F)cn4)nc4c(F)c(-c5cccc6cccc(Cl)c56)ncc34)C[C@H]1N2` [Example 32, (1R,5R,6R)-3-(7-(8-chloronaphthalen-1-yl)-8-fluoro-2-(2-(5-fluoropyridin-2-yl)ethoxy)pyrido[4,3-d]pyrimidin-4-yl)-3,8-diazabicyclo[3.2.1]octan-6-ol], greater than 50000 nM; with `O[C@@H]1C[C@@H]2CN(c3nc(OCCn4ccnc4CF)nc4c(F)c(-c5cccc6cccc(Cl)c56)ncc34)C[C@H]1N2` [Example 168, (1R,5R,6R)-3-(7-(8-chloronaphthalen-1-yl)-8-fluoro-2-(2-(2-(fluoromethyl)-1H-imidazol-1-yl)ethoxy)pyrido[4,3-d]pyrimidin-4-yl)-3,8-diazabicyclo[3.2.1]octan-6-ol], greater than 16700 nM.

For `Oc1cc(-c2ncc3c(N4C[C@H]5CC[C@@H](C4)N5)nc(OCCC(F)(F)F)nc3c2F)c2ccccc2c1` [Example 81, 4-(4-((1R,5S)-3,8-diazabicyclo[3.2.1]octan-3-yl)-8-fluoro-2-(3,3,3-trifluoropropoxy)pyrido[4,3-d]pyrimidin-7-yl)naphthalen-2-ol], half-maximal inhibition (IC50) required 8290 nM. With `Fc1c(-c2cccc3cccc(C(F)(F)F)c23)ncc2c(N3C[C@H]4CC[C@@H](C3)N4)nc(OC[C@@]34CCCN3C[C@H](F)C4)nc12` [Example 419, 4-((1R,5S)-3,8-diazabicyclo[3.2.1]octan-3-yl)-8-fluoro-2-(((2R,7aS)-2-fluorotetrahydro-1H-pyrrolizin-7a(5H)-yl)methoxy)-7-(8-(trifluoromethyl)naphthalen-1-yl)pyrido[4,3-d]pyrimidine] the figure was 2780 nM. With `Fc1c(-c2ccccc2OC(F)(F)F)ncc2c(N3C[C@H]4CC[C@@H](C3)N4)nc(OCC34CCCN3CCC4)nc12` [Example 229, 4-((1R,5S)-3,8-diazabicyclo[3.2.1]octan-3-yl)-8-fluoro-2-((tetrahydro-1H-pyrrolizin-7a(5H)-yl)methoxy)-7-(2-(trifluoromethoxy)phenyl)pyrido[4,3-d]pyrimidine bis-hydrochloride] the figure was 11300 nM; with `Cc1cc2[nH]ncc2c(-c2ncc3c(N4C[C@H]5CC[C@@H](C4)N5)nc(OCC45CCCN4CCC5)nc3c2F)c1C` [Example 249, 4-((1R,5S)-3,8-diazabicyclo[3.2.1]octan-3-yl)-7-(5,6-dimethyl-1H-indazol-4-yl)-8-fluoro-2-((hexahydro-1H-pyrrolizin-7a-yl)methoxy)pyrido[4,3-d]pyrimidine], 7710 nM; with `Cc1cccc2cccc(-c3ncc4c(N5C[C@H]6CC[C@@H](C5)N6)nc(OC[C@@H]5CCCN5C)nc4c3F)c12` [Example 15, 4-((1R,5S)-3,8-diazabicyclo[3.2.1]octan-3-yl)-8-fluoro-7-(8-methylnaphthalen-1-yl)-2-(((S)-1-methylpyrrolidin-2-yl)methoxy)pyrido[4,3-d]pyrimidine], greater than 16700 nM. With `Fc1c(-c2cccc(Cl)c2C(F)(F)F)ncc2c(N3C[C@H]4CC[C@@H](C3)N4)nc(OCC34CCCN3CCC4)nc12` [Example 328, 4-((1R,5S)-3,8-diazabicyclo[3.2.1]octan-3-yl)-7-(3-chloro-2-(trifluoromethyl)phenyl)-8-fluoro-2-((tetrahydro-1H-pyrrolizin-7a(5H)-yl)methoxy)pyrido[4,3-d]pyrimidine] the figure was 897 nM. Consider `NCC#Cc1cccc2cccc(-c3ncc4c(N5C[C@H]6CC[C@@H](C5)N6)nc(OCC56CCCN5CCC6)nc4c3F)c12` [Example 241, 3-(8-(4-((1R,5S)-3,8-diazabicyclo[3.2.1]octan-3-yl)-8-fluoro-2-((tetrahydro-1H-pyrrolizin-7a(5H)-yl)methoxy)pyrido[4,3-d]pyrimidin-7-yl)naphthalen-1-yl)prop-2-yn-1-amine], for which the IC50 is greater than 16700 nM.

As to `Fc1ccc2cccc(-c3ncc4c(N5C[C@H]6CC[C@@H](C5)N6)nc(OCC56CCCN5CCC6)nc4c3F)c2c1Cl` [Example 98, 4-((1R,5S)-3,8-diazabicyclo[3.2.1]octan-3-yl)-7-(8-chloro-7-fluoronaphthalen-1-yl)-8-fluoro-2-((tetrahydro-1H-pyrrolizin-7a(5H)-yl)methoxy)pyrido[4,3-d]pyrimidine bis(2,2,2-trifluoroacetate)], inhibition was half-maximal at 389 nM (IC50). With `COCCO[C@@H]1C[C@@H](COc2nc(N3C[C@H]4CC[C@@H](C3)N4)c3cnc(-c4cccc5cccc(Cl)c45)c(F)c3n2)N(C)C1` [Example 202, 4-((1R,5S)-3,8-diazabicyclo[3.2.1]octan-3-yl)-7-(8-chloronaphthalen-1-yl)-8-fluoro-2-(((2S,4R)-4-(2-methoxyethoxy)-1-methylpyrrolidin-2-yl)methoxy)pyrido[4,3-d]pyrimidine] the figure was 10200 nM; with `CN(C)c1ccccc1-c1ncc2c(N3C[C@H]4CC[C@@H](C3)N4)nc(OCC34CCCN3CCC4)nc2c1F` [Example 296, 2-(4-((1R,5S)-3,8-diazabicyclo[3.2.1]octan-3-yl)-8-fluoro-2-((hexahydro-1H-pyrrolizin-7a-yl)methoxy)pyrido[4,3-d]pyrimidin-7-yl)-N,N-dimethylaniline], 8470 nM. With `Fc1c(-c2cccc(Cl)c2C2CC2)ncc2c(N3CC4CCC(C3)N4)nc(OCC34CCCN3C[C@H](F)C4)nc12` (mixture of isomers) [Example 342, 4-((1R,5S)-3,8-diazabicyclo[3.2.1]octan-3-yl)-7-(3-chloro-2-cyclopropylphenyl)-8-fluoro-2-((2-fluorotetrahydro-1H-pyrrolizin-7a(5H)-yl)methoxy)pyrido[4,3-d]pyrimidine] the figure was 1000 nM. The same measure for `Cc1c(Cl)cc2[nH]ncc2c1-c1ncc2c(N3CC4CCC(C3)N4)nc(OC[C@@]34CCCN3C[C@H](F)C4)nc2c1F` (stereo in doubt) [Example 401, 4-((1R,5S)-3,8-diazabicyclo[3.2.1]octan-3-yl)-7-(6-chloro-5-methyl-1H-indazol-4-yl)-8-fluoro-2-((2-fluorotetrahydro-1H-pyrrolizin-7a(5H)-yl)methoxy)pyrido[4,3-d]pyrimidine]: 604 nM; for `O=C(OC[C@H]1CC[C@@]2(COc3nc(N4CC5CCC(C4)N5)c4cnc(-c5cccc6cccc(Cl)c56)c(F)c4n3)CCCN12)N1CCCC1` [Example 443, ((3R,7aR)-7a-(((4-(3,8-diazabicyclo[3.2.1]octan-3-yl)-7-(8-chloronaphthalen-1-yl)-8-fluoropyrido[4,3-d]pyrimidin-2-yl)oxy)methyl)hexahydro-1H-pyrrolizin-3-yl)methyl pyrrolidine-1-carboxylate]: 160 nM; for `CN1CCC[C@H]1COc1nc(N2CC3CCC(C2)N3)c2cnc(-c3c(Cl)c(O)cc4ccccc34)c(F)c2n1` [Example 337, 4-(4-(3,8-diazabicyclo[3.2.1]octan-3-yl)-8-fluoro-2-(((S)-1-methylpyrrolidin-2-yl)methoxy)pyrido[4,3-d]pyrimidin-7-yl)-3-chloronaphthalen-2-ol]: 1620 nM.

As usually defined, the IC50 is the concentration at which inhibition is half-maximal. A high value points to weaker potency.
